Results on two molecules are retold here after patent US12551581B2, “Combination cancer immunotherapy with pentaaza macrocyclic ring complex” (Galera Labs, LLC, priority 2017, dated 2026).

Like-named read-outs stand apart in the source and are kept apart here.

The conditions of data set [1]: rats, experimental colitis; Cuzzocrea et al. 2001; cited from earlier work.
For data set [2] the following is noted: hamster oral mucositis; Murphy et al. 2008; cited from earlier work.
For data set [3] the following is noted: lethal total body irradiation, adult mice; Thompson et al. 2010; cited from earlier work.
The conditions of data set [4]: rat model; Salvemini et al. 1999; cited from earlier work.
For data set [5] the following is noted: rat collagen-induced arthritis; Salvemini et al. 2001; cited from earlier work.
Data set [6] has as its system Colon 26 mouse colon cancer cell line tumors. Description: Colon 26 syngeneic tumor model, GC4419 with anti-PD1. The conditions noted are these: 1 and 3 mg/kg bid ip GC4419 added to anti-PD1 5 mg/kg; versus anti-PD1 alone. In kind it is in vivo, Balb/C mice. The procedure:
GC4419 was administered in combination with the T-cell checkpoint inhibitor anti-PD-1 (RMP1-14) to female Balb/C mice implanted with the mouse colon cancer cell line, Colon 26 beginning on day 3 post-implantation. Tumors were allowed to grow for up to 52 days or until they exceeded 1000 mm3.
Treatments with the antibody and GC4419 are described in Table 1.
Tumor volumes were assessed and median and mean values are shown in FIG. 1 (Median Tumor Volumes in Colon 26 Model) and 2 (Mean Tumor Volumes in Colon 26 Model).

Data set [7] concerns 4T1 tumors and lung metastases. Nature of the data set: 4T1 metastatic breast cancer model, GC4419 with radiation and anti-CTLA4. It is filed as in vivo, mice (syngeneic). The procedure:
Specifically, as shown in FIGS. 4A-4C, GC4419 decreases metastasis and enhances the efficacy of the combination of radiation and T-cell checkpoint inhibitor anti-CTLA4 (9D9) in the 4T1 metastatic breast cancer model. Syngeneic animals were subcutaneously implanted with 4T1 cells to form a xenograft. On day 12, when no lung metastasis is present, animals were treated with GC4419 (24 mg/kg), 15 Gy of 250 kVp X-rays, and/or anti CTLA-4 antibodies (10 mg/kg) or IgG control antibodies, as described in Table 3 below. Tumor growth was tracked as a function of time and at day 35 post implantation ([…]), animals were euthanized and lungs collected to count metastases.

Data set [8] deals with 4T1 tumors. Description: 4T1 tumor volume with GC4419 and/or radiation in immunocompetent mice. In kind it is in vivo, Balb/c mice. The procedure: (§1) In separate studies, either syngeneic Balb/c mice or immunodeficient nu/nu mice were subcutaneously implanted with 4T1 cells to form a xenograft. On day 11 after transplant, animals were treated with GC4419 (24 mg/kg) and/or 15 Gy of 250 kVp X-rays, as described in Table 5 below.
(§2) Tumor volume was tracked as a function of time, and Day 17 (the last common day of measurement between the two studies given the rapid growth of tumors in the nu/nu mice) mean tumor volumes are described in Table 6 below.

Data set [9] has as its system 4T1 tumors. Nature of the data set: 4T1 tumor volume with GC4419 and/or radiation in immunodeficient mice. The conditions noted are these: nu/nu mice. It is filed as in vivo. The procedure:
as §1, §2

Data set [10] has as its system Lewis lung carcinoma (LLC) tumors. Nature of the data set: Lewis lung carcinoma tumors, GC4419 plus ionizing radiation. In kind it is in vivo, C57.CL/6 mice. The procedure:
The effects of GC4419 plus IR on intratumoral levels of key immune cell populations were tested in Lewis lung carcinoma (LLC) tumors. In the study, 4 week old C57.CL/6 mice were injected with LLC cells to form tumors. At 13 days post-injection, animals were treated with GC4419 at doses of 3, 10 and 24 mg/kg and 15 Gy of 250 kVp X-rays. Tumor growth was tracked until tumor size exceeded 2 cm in any one direction. In addition, tumor infiltrating lymphocyte populations were assessed in separate animals via flow cytometry at various time points post IR (15 Gy) in combination with 10 mg/kg GC4419 treatment. Intratumoral populations of neutrophils, macrophages and activated cytotoxic T-cells were altered due to the presence of GC4419 either with or without ionizing radiation, as shown in FIG. 6B. However, it is unclear from this study alone whether these transient alterations in the immune cell populations caused by GC4419 contribute to improved results for the combination of GC4419 with checkpoint inhibitor therapy combined or in the absence of radiation therapy.

In data set [11] the test system is 4T1 mouse breast cancer tumors. Nature of the data set: 4T1 syngeneic tumor model, GC4419 with anti-CTLA-4, start day varied (Example 5). It is filed as in vivo, Balb/C mice. The procedure: GC4419 was administered in combination with the T-cell checkpoint inhibitor anti-CTLA-4 (9D9) to female Balb/C mice implanted subcutaneously with the mouse breast cancer cell line, 4T1. Tumors were allowed to grow for up to 45 days or until they exceeded 3000 mm^3 (or Group mean of 2000 mm^3).
Treatments with the antibody and GC4419 are described in Table 7.
Tumor volumes were assessed and mean values are shown in FIG. 5A (Mean Tumor Volumes in 4T1 Model).
FIG. 5B depicts such an improvement occurring for dosing of GC4419 that is delayed until day 13 after a start of anti-CTLA4 administration (i.e., after the 5th dose of anti-CTLA4). In comparison of arms treated with (a) combination of GC4419 with anti-CTLA4 treatment and (b) anti-CTLA4 treatment alone, no difference should be apparent between the two arms before addition of GC4419 treatment. As a result tumor control was assessed by normalizing the tumor growth curves of each arm with respect to the day on which treatment with GC4419 was started in the combination arm (i.e., day 13 in FIG. 5B).

Data set [12] relates to 4T1 mouse breast cancer tumors. Nature of the data set: 4T1 syngeneic model, GC4419 with anti-CTLA-4, delayed/skip dosing (Example 6). It is filed as in vivo, Balb/C mice. The procedure: GC4419 was administered in combination with the T-cell checkpoint inhibitor anti-CTLA-4 (9D9) to female Balb/C mice implanted subcutaneously with the mouse breast cancer cell line, 4T1. Tumors were allowed to grow for up to 35 days or until they exceeded 3000 mm^3 (or Group mean of 2000 mm^3).
Treatments with the antibody and GC4419 are described in Table 8.
Tumor volumes were assessed and mean values are shown in FIGS. 5C and 5D (Mean Tumor Volumes in 4T1 Model).

Data set [13] relates to LLC tumors. Description: LLC abscopal study, GC4419 with radiation and anti-CTLA4, primary and secondary tumors. In kind it is in vivo, C57Bl/6 mice. The procedure: Syngeneic animals (C57Bl/6 mice) were subcutaneously implanted with LLC cells in the right flank to form a xenograft (primary tumor). On day 2, the same animals were subcutaneously implanted with LLC cells in the left flank for form another xenograft (secondary tumor). On day 8, some animals began treatment with anti CTLA-4 antibodies (200 μg) as indicated below. On day 11, when both primary and secondary tumors were palpable, all animals were treated with GC4419 (24 mg/kg), 15 Gy of 250 kVp X-rays, and/or anti CTLA-4 antibodies (10 mg/kg), as described in Table 10 below. Tumor growth was tracked as a function of time for both primary and secondary tumors.

For data set [14] the following is noted: rat model; Tuder et al. 2003; cited from earlier work.
For data set [15] the following is noted: head-and-neck cancer patients undergoing chemoradiation therapy; Anderson 2015; cited from earlier work.

As to `[Cl-].[Cl-].[Mn+2].c1cc2nc(c1)CN[C@@H]1CCCC[C@H]1NCCN[C@@H]1CCCC[C@H]1NC2` [GC4403], the “injury to the colon” value in data set [1] is given as “very significantly reduce the injury to the colon”. For the same molecule, the radiation damage entry in data set [2] and in [3] was “attenuate the radiation damage” throughout. Also, in [4], the inflammation result is recorded as “inhibit inflammation”. Also, the joint disease result in [5] was “prevent joint disease”.
In the case of `[Cl][Mn][Cl].c1cc2nc(c1)CN[C@H]1CCCC[C@@H]1NCCN[C@H]1CCCC[C@@H]1NC2` [GC4419], the tumor growth result was “further decrease” in [6]; “further tumor growth reduction” in data set [8] (Balb/c mice, radiation plus GC4419 versus radiation alone); “further tumor growth reduction” in [9] (radiation plus GC4419 versus radiation alone); “further decrease” in data set [11] (3 mg/kg GC4419 QD x 21 added, started at least 3 days after antibody treatment). Also, the “sensitization of tumors to radiation (tumor volume, FIG. 4A)” value in data set [7] (GC4419 24 mg/kg D12-16 with 15 Gy RT D12) was “sensitized 4T1 tumors to radiation regardless of GC4419 dose”. In addition, the “efficacy of combination anti CTLA-4 therapy and radiation therapy (tumor volume, FIG. 4B)” value in data set [7] (GC4419 24 mg/kg added to anti-CTLA4 10 mg/kg + 15 Gy RT) was “enhanced the efficacy of combination anti CTLA-4 therapy and radiation therapy”. In data set [7] (day 35 post implantation), the “number of surface lung metastases (FIG. 4C)” value was “significantly decreased the number of metastases”. Besides, the “% Mice without Lung Metastases” value in data set [7] (day 35 post implantation, GC4419 24 mg/kg, RT 15 Gy, anti-CTLA4 10 mg/kg) is recorded as 0%. In data set [8] (Balb/c mice, Day 17 volume relative to RT alone group), the “V(x) / V(Group 3)” value is 1.25. The “Day 17 Tumor Volume, V” value in data set [8] (Balb/c mice, mean, GC4419 24 mg/kg D11-15, RT 15 Gy D11) is recorded as 1923 mm^3; in data set [9] (mean, GC4419 24 mg/kg D11-15, RT 15 Gy D11) it was “All sac'd at Day 13”. In addition, in [8] (Balb/c versus nu/nu mice), the “increase in response to combined radiation and GC4419 treatment” value is given as “greater in immunocompetent mice than in immunodeficient mice”. Besides, in data set [10] (10 mg/kg GC4419 with or without IR 15 Gy, flow cytometry, various time points), the “intratumoral populations of neutrophils, macrophages and activated cytotoxic T-cells” value was “altered”. Besides, in data set [10] (GC4419 3, 10 and 24 mg/kg with 15 Gy), the “sensitization of tumors to ionizing radiation (FIG. 6A)” value is recorded as “sensitized tumors to ionizing radiation regardless of dose”. Moreover, the “normalized tumor growth (FIG. 5B)” value in [11] (GC4419 start delayed until day 13 after start of anti-CTLA4, versus anti-CTLA4 alone) is “reduced tumor growth”. Also, in data set [12] (3 mg/kg or 10 mg/kg GC4419 added to anti-CTLA4, started at least 3 days after antibody), the tumor volumes result is listed as “significant further decrease in tumor volumes”. Also, the “tumor volume (FIG. 5D)” value in [12] (GC4419 10 mg/kg versus 3 mg/kg, with anti-CTLA4) was “improved results over a dose of 3 mg/kg”. Moreover, the “tumor volume (FIG. 5C)” value in data set [12] (skipping GC4419 on days when anti-CTLA4 was administered) was “further improved the results, albeit slightly”. Besides, the “sensitization of primary and secondary tumors to radiation (growth delay)” value in data set [13] (GC4419 D11-15 with 15 Gy RT D11 to primary tumor) was “sensitized primary and secondary tumors to radiation”. For the same molecule, the “growth of secondary tumors (FIG. 8E)” value in [13] (GC4419 added to anti CTLA-4 therapy and radiation therapy) is “slowed the growth of secondary tumors”. For the same molecule, in data set [13] (GC4419 added to anti-CTLA4 200 μg + 15 Gy RT), the “sensitization of primary tumors to combination of anti CTLA-4 therapy and radiation therapy” value is “sensitized”. For the same molecule, the “VEGFr inhibitor-induced pulmonary disease” value in data set [14] was “attenuate VEGFr inhibitor-induced pulmonary disease”. Further, in [15], the oral mucositis entry is reported as “reduce oral mucositis”.
